Counter-ions that a name gives are not always drawn.
Columns and labels:
[1] = target: T1, JAK1 (Homo sapiens, UniProt P23458); experiment: JAK tyrosine kinase inhibitory activity in the presence of 1 mM ATP (ELISA), JAK1; format: biochemical
T1 construct: purchased Carna Biosciences, Inc
Outline: (§1)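 Kinase reactions ran on streptavidin-coated plates in 15 mM Tris-HCl pH 7.5, 0.01% Tween-20, 1 mM DTT, 30 °C for 1 h. Enzyme was prediluted to 7.5 nM (JAK1) or 0.75 nM (JAK2, JAK3) before addition. Phosphotyrosine was detected with HRP anti-pTyr antibody and TMB at A450.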

[2] = target: T2, JAK3 (Homo sapiens, UniProt P52333); experiment: JAK tyrosine kinase inhibitory activity in the presence of 1 mM ATP (ELISA), JAK3; format: biochemical
T2 construct: purchased Carna Biosciences, Inc
T2 sequence (P52333 1-1124): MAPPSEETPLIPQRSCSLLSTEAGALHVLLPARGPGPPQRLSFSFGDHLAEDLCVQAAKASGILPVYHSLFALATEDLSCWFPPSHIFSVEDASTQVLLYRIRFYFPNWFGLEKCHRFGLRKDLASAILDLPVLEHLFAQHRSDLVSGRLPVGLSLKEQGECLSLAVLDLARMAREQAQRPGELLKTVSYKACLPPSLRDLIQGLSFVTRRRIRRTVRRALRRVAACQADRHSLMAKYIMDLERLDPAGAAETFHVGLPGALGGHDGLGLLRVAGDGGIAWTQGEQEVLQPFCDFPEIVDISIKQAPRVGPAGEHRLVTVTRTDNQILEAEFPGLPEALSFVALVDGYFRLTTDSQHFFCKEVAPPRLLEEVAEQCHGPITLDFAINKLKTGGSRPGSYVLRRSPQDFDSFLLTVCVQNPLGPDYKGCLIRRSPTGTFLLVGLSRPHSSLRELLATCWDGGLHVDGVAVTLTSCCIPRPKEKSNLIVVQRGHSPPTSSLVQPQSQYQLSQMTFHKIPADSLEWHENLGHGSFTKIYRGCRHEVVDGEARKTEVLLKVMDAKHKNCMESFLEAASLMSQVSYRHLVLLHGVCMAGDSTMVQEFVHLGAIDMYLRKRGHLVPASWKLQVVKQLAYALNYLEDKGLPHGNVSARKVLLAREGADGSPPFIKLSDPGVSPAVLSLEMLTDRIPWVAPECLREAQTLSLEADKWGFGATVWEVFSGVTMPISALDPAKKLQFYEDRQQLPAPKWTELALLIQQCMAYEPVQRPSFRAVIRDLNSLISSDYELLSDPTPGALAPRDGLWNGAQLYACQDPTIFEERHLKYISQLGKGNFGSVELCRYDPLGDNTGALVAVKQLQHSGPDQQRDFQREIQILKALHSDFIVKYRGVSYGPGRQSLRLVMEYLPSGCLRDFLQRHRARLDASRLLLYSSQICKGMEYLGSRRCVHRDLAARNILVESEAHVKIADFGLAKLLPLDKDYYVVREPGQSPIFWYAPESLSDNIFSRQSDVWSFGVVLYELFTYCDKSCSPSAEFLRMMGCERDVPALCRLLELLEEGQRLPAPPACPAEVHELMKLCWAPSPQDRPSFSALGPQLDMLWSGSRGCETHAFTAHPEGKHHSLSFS
Outline: as §1

[3] = test system: Aspergillus-induced airway inflammation model; experiment: Inhibitory effect on Aspergillus-induced airway inflammation model; format: in vivo; conditions: mice; for inhibition in vivo at 10000 µg/mL, 100 mg/kg: Mus musculus, Eosinophil, po, 240 h, 10 mg/mL suspension at 10 mL/kg twice a day Day 0 to Day 9, BALF collected at Day 10, read-out: Inhibition rate on count of invasive eosinophil in BALF (%)
Protocol: Aspergillus fumigatus extracts (Greer laboratories, Inc.) were adjusted to 400 μg/mL with PBS. The Aspergillus fumigatus solutions thus prepared were administered to mice as nasal drops (50 μL) on Day 0, Day 1, Day 7 and Day 8. The nasal drop was administered one hour after the administration of test compounds in the morning. The test compound was administered twice a day in the morning and evening of Day 0 to Day 9. The test compound was suspended in 0.5% methylcellulose at 10 mg/mL, and orally administered at the dosage of 10 mL/kg. The bronchoalveolar lavage fluid (BALF) was collected at Day 10, and the total white blood cell count in BALF was measured using Celltac (NIHON KOHDEN). The ratio of eosinophil in total white blood cell was calculated using ADVIA 120 (Siemens Healthcare Diagnostics), and the ratio was multiplied by the total white blood cell count to determine the eosinophil count in BALF. The inhibition rate of the test compound was determined, assuming the inhibitory ratio in the treatment with Aspergillus fumigatus extract and 0.5% methylcellulose as 0% and the inhibitory ratio in the treatment without Aspergillus fumigatus extract but with 0.5% methylcellulose as 100%.

[4] = target: T3, JAK2 (Homo sapiens, UniProt O60674); experiment: JAK tyrosine kinase inhibitory activity in the presence of 1 mM ATP (ELISA), JAK2; format: biochemical
T3 construct: purchased Carna Biosciences, Inc
Outline: as §1

T1 sequence (P23458 whole entry): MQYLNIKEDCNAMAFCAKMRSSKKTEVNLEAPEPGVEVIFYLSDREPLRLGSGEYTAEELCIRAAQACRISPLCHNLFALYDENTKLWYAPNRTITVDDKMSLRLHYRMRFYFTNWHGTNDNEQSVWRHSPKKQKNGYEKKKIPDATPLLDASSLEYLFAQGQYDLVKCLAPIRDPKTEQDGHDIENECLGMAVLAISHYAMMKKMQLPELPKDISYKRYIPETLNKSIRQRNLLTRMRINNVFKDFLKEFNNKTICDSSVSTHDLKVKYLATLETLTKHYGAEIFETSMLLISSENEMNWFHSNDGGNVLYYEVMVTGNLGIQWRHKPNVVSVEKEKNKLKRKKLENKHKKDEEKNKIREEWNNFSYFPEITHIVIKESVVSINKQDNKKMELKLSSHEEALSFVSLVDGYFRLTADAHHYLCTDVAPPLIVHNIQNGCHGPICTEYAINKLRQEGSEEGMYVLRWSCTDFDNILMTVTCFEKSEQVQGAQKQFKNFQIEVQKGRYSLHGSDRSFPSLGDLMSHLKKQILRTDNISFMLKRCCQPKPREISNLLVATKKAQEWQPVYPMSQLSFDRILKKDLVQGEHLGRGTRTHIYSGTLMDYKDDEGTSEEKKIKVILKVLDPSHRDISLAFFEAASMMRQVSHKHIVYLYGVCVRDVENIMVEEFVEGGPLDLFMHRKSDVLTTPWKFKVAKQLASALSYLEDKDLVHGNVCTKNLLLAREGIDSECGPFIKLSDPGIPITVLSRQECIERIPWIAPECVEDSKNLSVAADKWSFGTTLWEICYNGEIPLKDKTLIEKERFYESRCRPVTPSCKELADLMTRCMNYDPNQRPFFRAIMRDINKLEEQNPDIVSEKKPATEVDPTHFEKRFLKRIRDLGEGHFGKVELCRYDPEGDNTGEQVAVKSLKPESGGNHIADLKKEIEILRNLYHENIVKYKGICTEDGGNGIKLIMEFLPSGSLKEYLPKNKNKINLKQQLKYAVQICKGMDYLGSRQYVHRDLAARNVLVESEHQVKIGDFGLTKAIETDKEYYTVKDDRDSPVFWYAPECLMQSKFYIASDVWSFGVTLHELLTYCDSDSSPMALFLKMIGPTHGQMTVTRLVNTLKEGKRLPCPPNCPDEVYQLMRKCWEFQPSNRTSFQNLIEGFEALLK
T3 sequence (O60674 whole entry): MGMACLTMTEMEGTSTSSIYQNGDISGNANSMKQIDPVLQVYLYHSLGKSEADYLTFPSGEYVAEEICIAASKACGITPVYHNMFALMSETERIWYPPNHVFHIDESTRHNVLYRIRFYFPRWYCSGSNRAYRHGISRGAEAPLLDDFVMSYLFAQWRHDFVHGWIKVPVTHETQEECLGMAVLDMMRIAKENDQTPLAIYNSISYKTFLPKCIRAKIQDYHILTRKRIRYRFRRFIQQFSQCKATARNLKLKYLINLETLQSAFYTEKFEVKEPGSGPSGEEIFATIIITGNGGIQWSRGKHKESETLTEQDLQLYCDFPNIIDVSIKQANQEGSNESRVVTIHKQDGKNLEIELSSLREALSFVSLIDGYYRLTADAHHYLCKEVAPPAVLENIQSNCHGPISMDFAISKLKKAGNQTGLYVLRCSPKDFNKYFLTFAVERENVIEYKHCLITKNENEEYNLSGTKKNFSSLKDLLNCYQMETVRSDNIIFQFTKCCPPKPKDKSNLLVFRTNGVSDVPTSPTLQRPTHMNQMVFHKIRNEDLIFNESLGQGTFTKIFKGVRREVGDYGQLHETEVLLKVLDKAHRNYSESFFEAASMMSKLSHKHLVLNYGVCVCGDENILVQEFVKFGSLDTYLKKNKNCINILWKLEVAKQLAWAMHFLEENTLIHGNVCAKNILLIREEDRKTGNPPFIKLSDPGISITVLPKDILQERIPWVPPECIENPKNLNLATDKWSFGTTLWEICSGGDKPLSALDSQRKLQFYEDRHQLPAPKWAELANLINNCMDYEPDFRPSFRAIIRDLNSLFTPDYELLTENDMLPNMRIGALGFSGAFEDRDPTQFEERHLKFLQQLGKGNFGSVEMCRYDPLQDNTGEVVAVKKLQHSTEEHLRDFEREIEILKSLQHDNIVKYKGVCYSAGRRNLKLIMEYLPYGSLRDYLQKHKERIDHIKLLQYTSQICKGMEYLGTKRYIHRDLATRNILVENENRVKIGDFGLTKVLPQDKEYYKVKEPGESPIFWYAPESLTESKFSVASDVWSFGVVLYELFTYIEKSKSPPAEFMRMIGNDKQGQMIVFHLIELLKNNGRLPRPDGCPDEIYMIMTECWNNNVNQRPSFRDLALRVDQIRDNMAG

SMILES	IC50 [1]	IC50 [2]	Inhibition rate on count of invasive eosinophil in BALF (%) ([3]; oral, 10 mg/mL suspension at 10 mL/kg twice a day Day 0 to Day 9, BALF collected at Day 10)	IC50 [4]	inhibition in vivo at 10000 µg/mL, 100 mg/kg [3]
CCOC(=O)NC1CCN(C(=O)c2cc(N[C@H](C)C3CC3)nc(-c3cnn4ccsc34)n2)CC1 [Example 73, Ethyl (1-{[6-{[(1R)-1-cyclopropylethyl]amino}-2-(pyrazolo[5,1-b][1,3]thiazol-7-yl)pyrimidin-4-yl]carbonyl}piperidin-4-yl)carbamate]	73 nM	2200 nM	64%	3200 nM	–
C[C@@H](Nc1cc(C(=O)N2CCC(NC(=O)C3CC3)CC2)nc(-c2cnn3ccsc23)n1)C(C)(C)C [Example 16, N-(1-{[6-{[(2R)-3,3-Dimethylbutan-2-yl]amino}-2-(pyrazolo[5,1-b][1,3]thiazol-7-yl)pyrimidin-4-yl]carbonyl}piperidin-4-yl)cyclopropanecarboxamide]	53 nM	2200 nM	–	2200 nM	33%
C[C@@H](C1CC1)N(C)c1cc(C(=O)N2CCC(NC(=O)C3CC3)CC2)nc(-c2cnn3ccsc23)n1 [Example 33, N-(1-{[6-{[(1S)-1-Cyclopropylethyl](methyl)amino}-2-(pyrazolo[5,1-b][1,3]thiazol-7-yl)pyrimidin-4-yl]carbonyl}piperidin-4-yl)cyclopropanecarboxamide hydrochloride]	130 nM	1700 nM	–	1700 nM	37%
CC(C)(C)Nc1cc(C(=O)N2CCC(O)CC2)nc(-c2cnn3ccsc23)n1 [Example 58, [6-(tert-Butylamino)-2-(pyrazolo[5,1-b][1,3]thiazol-7-yl)pyrimidin-4-yl](4-hydroxypiperidin-1-yl)methanone]	400 nM	> 10000 nM	–	2900 nM	37%
C[C@H](Nc1cc(C(=O)N2CCC(O)CC2)nc(-c2cnn3ccsc23)n1)C(C)(C)C [Example 23, [6-{[(2S)-3,3-Dimethylbutan-2-yl]amino}-2-(pyrazolo[5,1-b][1,3]thiazol-7-yl)pyrimidin-4-yl](4-hydroxypiperidin-1-yl)methanone]	860 nM	3300 nM	–	870 nM	31%
